In the assay the test system is FAT/CD36 promoter. As to the kind of experiment: Chromatin immunoprecipitation (ChIP assay), binding of PPARγ2 to FAT/CD36 promoter in HepG2 cells. The class given is cell-based. To be noted: overexpression, FIG. 7C upper side. Here is the method:
In addition, for chromatin immunoprecipitation (ChIP), HepG2 cells were seeded in a 100 mm plate at a density of 4×10^6 cells per each well, and then transfected with Flag-PPARγ2 DNA (4 μg), mGST-14-3-3β DNA (4 μg) or mGST-14-3-3γ DNA (4 μg), and si-14-3-3β (20 μM, Santa Cruz) or si-14-3-3γ (20 μM, Santa Cruz) using an E-fection plus reagent (Lugen). A ratio of DNA to the E-fection plus reagent was 1:2, and this method was performed according to a manufacturer's manual. The corresponding cells were treated with 0.75% formaldehyde at room temperature for 15 minutes, glycine was added thereto, and the resulting cells were scraped into ice-cold PBS and centrifuged at 1,000×g and 4° C. for 3 minutes to remove a supernatant, pellets were dissolved with 400 μl of FA lysis buffer (50 mM HEPES, 150 mM NaCl, 2 mM EDTA pH 8.0, 1% Triton-X100, 0.1% NaDeoxycholate), and then lysed using a sonicator twice for 10 minutes at a high voltage under the following condition: lysis for 30 seconds and resting for 30 seconds. […]
In addition, the binding of PPARγ2 and a binding strength thereof according to the expression of 14-3-3β and 14-3-3γ were evaluated by ChIP assay using a PPAR response element (PPRE) known as a binding site of PPARγ2 present in the FAT/CD36 promoter. […]

Take “14-3-3β: 14-3-3 isoform protein overexpressed by DNA transfection; increases the transcriptional activity of PPARγ2 by binding to PPARγ2”: the “binding of PPARγ2 to the FAT/CD36 promoter” value was “increased”. For the substance “14-3-3γ: 14-3-3 isoform protein overexpressed by DNA transfection; decreases the transcriptional activity of PPARγ2; proposed active ingredient”, the “binding of PPARγ2 to the FAT/CD36 promoter” value is “inhibited”.

The record behind these values is patent US10688197B2, “Non-alcoholic fatty liver regulator 14-3-3 protein” (Korea University Research and Business Foundation, priority 2015, dated 2020).
